Drawing on ChEMBL document CHEMBL1143664, “New antitumoral acetogenin 'Guanacone type' derivatives: isolation and bioactivity. Molecular dynamics simulation of diacetyl-guanacone” (Bioorg Med Chem, 2007), this text covers IC50 and EC50 for six compounds.

Assay [1] can be described thus: Inhibition of NADH-ubiquinone oxidoreductase assessed by NADH oxidase activity in beef heart submitochondrial particles. Details: species or system Bos taurus.
The test system of a further assay is MCF7. The experiment in a line: Antitumor activity against human MCF7 cells after 24 hrs by MTT assay. To be noted: MCF7, 24 h, read-out: ED50 (the source's name). The format is functional. (Tetrazolium dyes change colour on reduction, which living cells bring about.)
For the next assay, the system named is HepG2. Put plainly: Antitumor activity against human HepG2 cells after 24 hrs by MTT assay. To be noted: HepG2, 24 h, read-out: ED50 (the source's name). The class given is functional.
In the next assay the test system is HT-29. The experiment in a line: Antitumor activity against human HT29 cells after 24 hrs by MTT assay. The format is functional. To be noted: HT-29, 24 h, read-out: ED50 (the source's name).
A further assay has as its system A549. Put plainly: Antitumor activity against human A549 cells after 24 hrs by MTT assay. As to conditions: A549, 24 h, read-out: ED50 (the source's name). The format is functional.
The nature of assay [2]: Antitumor activity against human MES-SA cells after 24 hrs by MTT assay. The class given is functional. To be noted: read-out: ED50 (the source's name).
Assay [3] in a line: Antitumor activity against doxorubucin-resistant human MES-SA/Dx5 cells by MTT assay after 24 hrs. The format is functional. To be noted: MES-SA/Dx5, 24 h, read-out: ED50 (the source's name).

As a reminder, the IC50 is the concentration at which inhibition is half-maximal. A higher IC50 goes with weaker potency in that assay. Regarding `CCCCCCCCCC[C@H](OC(C)=O)[C@H]1CC[C@H]([C@H]2CC[C@H]([C@H](O)CCCCC(=O)CCCCCCCC3=C[C@H](C)OC3=O)O2)O1`, in assay [1], the IC50 amounted to 0.0034 µM. Further, the EC50 in the assay with MCF7 was 50 µM; in the assay with HepG2, 18 µM; in the assay on HT-29, 154 µM; with A549 it was 192 µM; in assay [2] it was 43 µM; in assay [3], 83 µM.
As to `CCCCCCCCCC[C@H](O)[C@H]1CC[C@H]([C@H]2CC[C@H]([C@@H](CCCCC(=O)CCCCCCCC3=C[C@H](C)OC3=O)OC(C)=O)O2)O1`, it took 0.0028 µM to reach half-maximal inhibition in assay [1] (IC50). Also, the EC50 with MCF7 stood at 66 µM; in the assay on HepG2, 51 µM; in the assay on HT-29 it was 169 µM; in the assay on A549, 101 µM; in assay [2] it was 76 µM; in assay [3] it was 97 µM.
Turning to `CCCCCCCCCC[C@H](OC(C)=O)[C@H]1CC[C@H]([C@H]2CC[C@H]([C@@H](CCCCC(=O)CCCCCCCC3=C[C@H](C)OC3=O)OC(C)=O)O2)O1`, the IC50 in assay [1] worked out at 0.0004 µM. In addition, the EC50 in the assay on MCF7 is 29 µM; in the assay with HepG2, 9 µM; in the assay on HT-29 it was 195 µM; in the assay with A549 it was 60 µM; in assay [2], 28 µM; in assay [3] it was 56 µM.
Turning to `COc1cccc2c1C(=O)c1c(O)c3c(c(O)c1C2=O)C[C@@](O)(C(=O)CO)C[C@@H]3O[C@H]1C[C@H](N)[C@H](O)[C@H](C)O1` [DOXORUBICIN], the EC50 in the assay with MCF7 was 8 µM; in the assay on HepG2 it was 102 µM; in the assay with HT-29 it was 274 µM; with A549, 152 µM; in assay [2] it was 173 µM; in assay [3], more than 500 µM.
In assay [1], `CCCCCCCCCC[C@H](O)[C@H]1CC[C@H]([C@H]2CC[C@H]([C@H](O)CCCCC(=O)CCCCCCCC3=C[C@H](C)OC3=O)O2)O1` [GUANACONE] returned an IC50 of 0.0012 µM. Also, the EC50 in the assay on MCF7 turned out to be 39 µM; in the assay on HepG2, 11 µM; in the assay on HT-29 it was 71 µM; with A549, 148 µM; in assay [2], 22 µM; in assay [3], 52 µM.
For `C=C(C)[C@H]1Cc2c(ccc3c2O[C@@H]2COc4cc(OC)c(OC)cc4[C@@H]2C3=O)O1` [ROTENONE], the IC50 in assay [1] was 0.0051 µM. Moreover, the EC50 in the assay on MCF7 is 161 µM; in the assay with HepG2, 15 µM; with HT-29, 202 µM; in the assay on A549, 26 µM; in assay [2], 147 µM; in assay [3], 214 µM.
